Patent publication US20120214748A1, “NOVEL PEPTIDES, PROCESS FOR PREPARATION THEREOF, AND USE THEREOF” (priority 2009, published 2012)
Read-outs that look alike come from different tables or passages of the source. Bridge positions count the residues as written; N and C are the ends. Peptide text beside a SMILES is read from it.

Legend:
Trypsin = target: T1, Trypsin (Bos taurus, UniProt P00760); test: Trypsin inhibition on Z-L-Lys-SBzl substrate
T1 sequence (P00760 24-246): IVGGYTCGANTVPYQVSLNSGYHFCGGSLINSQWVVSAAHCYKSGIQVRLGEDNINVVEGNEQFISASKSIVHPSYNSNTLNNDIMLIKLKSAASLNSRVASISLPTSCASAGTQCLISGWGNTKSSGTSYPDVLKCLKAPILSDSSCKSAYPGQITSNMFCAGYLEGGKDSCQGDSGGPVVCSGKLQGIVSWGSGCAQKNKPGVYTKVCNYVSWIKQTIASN

MASP enzymes [1] = test: Preliminary experiments: inhibition of MASP enzymes by SGCI; format: biochemical
MASP enzymes [2] = test: Preliminary experiments: binding of SGCI to MASP enzymes
Thrombin = Thrombin (Homo sapiens, UniProt P00734); test: Thrombin inhibition with Z-Gly-Pro-Arg-pNa substrate; format: biochemical
[3] = system: blood coagulation (thrombin operation); test: Thrombin time (TT) in blood plasma; settings: peptide 200 μM, FIG. 6.a
Experimental: (§1) We performed blood coagulation measurements using blood plasma taken from healthy individuals. From the blood obtained through venipuncture and treated with sodium citrate (3.8% wt/vol) the plasma was isolated by centrifugation (2000 g, 15 minutes, Jouan CR412 centrifuge).
(§2) Prothrombin time (PT) testing the extrinsic pathway of blood coagulation was measured on Sysmex® CA-500 (Sysmex, Japan) automatic system using Innovin® Reagent (Dale Behring, Marburg, Germany). Activated partial thromboplastin time (APTT) testing the intrinsic pathway of blood coagulation and thrombin time (TT) directly testing thrombin operation was measured on a Coag-A-Mate® MAX (BioMerieux, France) analyser using TriniClot™ reagent (Trinity Biotech, Wichlow, Ireland) and Reanal™ reagent (Reanal Finechemical, Hungary).
(§3) To examine the effects of peptides on blood coagulation we measured dose dependency, the results are shown on the graphs in FIG. 6. […] On the ordinates time is determined in seconds, while on the abscissas the logarithm of the inhibitor concentration is shown in μM.
(§4) FIG. 6.a illustrates an experiment for measuring thrombin time, in the course of which plasma coagulation (fibrin formation) is initiated by adding thrombin to the plasma. […] The members of this protease cascade are inhibited with peptide used in increasing concentrations (abscissa), and the time needed for coagulation is measured (ordinate).

[4] = system: extrinsic pathway of blood coagulation; test: Prothrombin time (PT) in blood plasma; settings: peptide 200 μM, FIG. 6.b
Experimental: as §1, §2, §3, §4

[5] = system: intrinsic pathway of blood coagulation; test: Activated partial thromboplastin time (APTT) in blood plasma; settings: peptide 200 μM, FIG. 6.c
Experimental: as §1, §2, §3, §4

[6] = system: lectin pathway of the complement system; test: WIELISA complement assay, lectin pathway; format: biochemical; settings: serum, FIG. 7
Experimental: (§5) For measuring we used the so-called WIELISA kit (Euro-Diagnostica AB, COMPL300) developed for the selective measuring of the complement pathways, on the basis of the instructions for use attached to the kit. […] At the same time, the product detected during measuring is not a pathway-selective component, but the last element of the joint section of the activation pathways, the C5-9 complex.
(§6) The serum was diluted according to the prescriptions with the buffer belonging to the given complement pathway, it was incubated for 20 minutes at room temperature, the dilution sequence prepared from peptides was added to it, it was incubated for 20 minutes at room temperature, then it was pipetted into the appropriate wells of a special ELISA plate. In the following, washing, incubation and antibody addition was performed according to the instructions for use. It was incubated for 20 minutes with the substrate, and then the data was read at 450 nm in a spectrophotometer. A parallel belonged to each measuring point, 100% activity was represented by the serum without an inhibitor. The measurements were performed at the same time and on the same plate, from one single melted serum sample.

[7] = system: classical pathway of the complement system; test: WIELISA complement assay, classical pathway; format: biochemical; settings: serum, FIG. 7
Experimental: as §5, §6

[8] = system: alternative pathway of the complement system; test: WIELISA complement assay, alternative pathway; format: biochemical; settings: serum, FIG. 7
Experimental: as §5, §6

MASP-1 CCP1-CCP2-SP = target: T2, MASP-1 CCP1-CCP2-SP (Homo sapiens, UniProt P48740); test: Ki determination with synthetic substrate Z-L-Lys-SBzl on MASP-1; format: biochemical
T2 construct: Human MASP-targets consist of a serine-protease (SP) domain and two complement control protein domains (CCP-1,-2); made in house
T2 sequence (P48740 449-699 limits assumed): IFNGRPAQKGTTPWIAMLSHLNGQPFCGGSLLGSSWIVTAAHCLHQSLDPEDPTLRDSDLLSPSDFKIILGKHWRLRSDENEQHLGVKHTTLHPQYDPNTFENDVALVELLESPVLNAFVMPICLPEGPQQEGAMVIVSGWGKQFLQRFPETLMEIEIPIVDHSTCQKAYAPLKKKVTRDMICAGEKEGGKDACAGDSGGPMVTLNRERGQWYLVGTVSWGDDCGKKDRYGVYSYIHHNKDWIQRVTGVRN
T2 sequence (P48740 298-448 partner limits assumed): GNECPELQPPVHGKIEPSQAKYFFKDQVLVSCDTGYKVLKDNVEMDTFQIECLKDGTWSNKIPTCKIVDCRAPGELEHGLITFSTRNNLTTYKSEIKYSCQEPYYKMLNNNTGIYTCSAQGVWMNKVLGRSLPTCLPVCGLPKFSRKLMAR

MASP-2 CCP1-CCP2-SP = target: T3, MASP-2 CCP1-CCP2-SP (Homo sapiens, UniProt O00187); test: Ki determination with synthetic substrate Z-L-Lys-SBzl on MASP-2; format: biochemical; settings: NG = inhibition could not be measured even at the highest inhibitor concentration used
T3 construct: Human MASP-targets consist of a serine-protease (SP) domain and two complement control protein domains (CCP-1,-2); made in house
T3 sequence (O00187 445-686 limits assumed): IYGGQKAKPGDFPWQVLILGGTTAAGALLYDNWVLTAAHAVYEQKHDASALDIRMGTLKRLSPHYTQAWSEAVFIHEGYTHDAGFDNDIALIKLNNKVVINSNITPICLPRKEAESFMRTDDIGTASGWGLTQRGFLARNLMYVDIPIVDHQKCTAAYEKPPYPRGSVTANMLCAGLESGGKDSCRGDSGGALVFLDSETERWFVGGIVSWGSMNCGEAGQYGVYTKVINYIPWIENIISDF
T3 sequence (O00187 287-444 partner limits assumed): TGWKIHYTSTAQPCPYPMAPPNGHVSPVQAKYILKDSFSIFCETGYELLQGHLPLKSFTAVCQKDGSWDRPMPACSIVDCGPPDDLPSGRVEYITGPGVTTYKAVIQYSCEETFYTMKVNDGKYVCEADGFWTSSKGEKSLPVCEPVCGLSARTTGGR

Q: For CC[C@H](C)[C@@H]1NC(=O)[C@@H]2CCCN2C(=O)[C@@H]2CCCN2C(=O)[C@H](CC(C)C)NC(=O)[C@H](CO)NC(=O)[C@H](CCCNC(=N)N)NC(=O)[C@H](CO)NC(=O)[C@@H](NC(=O)[C@@H](NC(=O)CN)C(C)C)CSSC[C@@H](C(=O)N[C@@H](Cc2c[nH]c3ccccc23)C(=O)N2CCC[C@H]2C(=O)N[C@@H](CC(=O)O)C(=O)O)NC1=O [M1-3E-Y12W] (H-GVCSRSLPPICWPD-OH; disulfide 3-11; N-terminus and C-terminus assumed), which Ki (Trypsin) is on record?
A: 170 nM

Q: With CC[C@H](C)[C@@H]1NC(=O)CNC(=O)[C@H](CC(=O)O)NC(=O)[C@@H]2CCCN2C(=O)[C@H]([C@@H](C)CC)NC(=O)[C@@H]2CSSC[C@H](NC1=O)C(=O)N[C@@H](CO)C(=O)N[C@@H](CCCNC(=N)N)C(=O)N[C@@H](CO)C(=O)N[C@@H](CC(C)C)C(=O)N1CCC[C@H]1C(=O)N1CCC[C@H]1C(=O)N[C@@H]([C@@H](C)CC)C(=O)N2 [M2-4G cyclic] (cyclo(CIPDGICSRSLPPI); disulfide 1-7) as the compound, how does the Ki (Trypsin) read?
A: 350 nM

Q: How did the “inhibition of MASP enzymes” value (MASP enzymes [1]) turn out when “SGCI: Schistocerca Gregaria Chymotrypsin Inhibitor, chymotrypsin inhibitor molecule fused to the SFTI library for monovalent phage display (EVTCEPGTTFKDKCNTCRCGSDGKSAACTLKACPQ)” was run?
A: does not inhibit MASP enzymes

Q: And the “binding to MASP enzymes” value (MASP enzymes [2])?
A: does not even bind to these enzymes

Q: For CC[C@H](C)[C@H](NC(=O)CN)C(=O)N[C@H]1CSSC[C@@H](C(=O)N[C@H](C(=O)N2CCC[C@H]2C(=O)N[C@@H](CC(=O)O)C(=O)O)[C@@H](C)CC)NC(=O)[C@H]([C@@H](C)CC)NC(=O)[C@@H]2CCCN2C(=O)[C@@H]2CCCN2C(=O)[C@H](CC(C)C)NC(=O)[C@H](CO)NC(=O)[C@H](CCCNC(=N)N)NC(=O)[C@H](CO)NC1=O [M2-4G] (H-GICSRSLPPICIPD-OH; disulfide 3-11; N-terminus and C-terminus assumed), which “thrombin inhibition” value (Thrombin) is on record?
A: poor thrombin inhibitor

Q: What about the Ki (Thrombin; read-out: Ki value on thrombin) of the same compound?
A: 10 µM

Q: And the “thrombin time, effect on coagulation” value [3]?
A: reached the extreme measuring value

Q: What about the “prothrombin time, effect on coagulation” value [4] of the same compound?
A: reached the extreme measuring value

Q: What about the “activated thromboplastin time, effect on coagulation” value [5] of the same compound?
A: reached the extreme measuring value

Q: And the “inhibition of the lectin pathway (C5-9 complex)” value [6]?
A: efficient and specific inhibitors of the lectin pathway

Q: What about the “inhibition of the classical pathway (C5-9 complex)” value [7] of the same compound?
A: neither “S” peptide nor the “NS” peptide inhibited

Q: And the “inhibition of the alternative pathway (C5-9 complex)” value [8]?
A: neither “S” peptide nor the “NS” peptide inhibited

Q: And the Ki (Trypsin)?
A: 260 nM

Q: And the “trypsin inhibition compared to wild-type SFTI-1” value (Trypsin)?
A: much weaker on trypsin than wild-type SFTI-1

Q: With CC[C@H](C)[C@H](NC(=O)[C@@H]1CSSC[C@H](NC(=O)[C@H](Cc2ccc(O)cc2)NC(=O)CN)C(=O)N[C@@H](CO)C(=O)N[C@@H](CCCNC(=N)N)C(=O)N[C@@H](CO)C(=O)N[C@@H]([C@@H](C)CC)C(=O)N2CCC[C@H]2C(=O)N2CCC[C@H]2C(=O)N[C@@H](C(C)C)C(=O)N1)C(=O)N1CCC[C@H]1C(=O)N[C@@H](CC(=O)O)C(=O)O [M2-6E-Y7I] (H-GYCSRSIPPVCIPD-OH; disulfide 3-11; N-terminus and C-terminus assumed) as the compound, how does the Ki (Trypsin) read?
A: 160 nM

Q: Which “activity on MASP-1” value (MASP-1 CCP1-CCP2-SP) does the source give for CC[C@H](C)[C@H](NC(=O)[C@@H]1CSSC[C@H](NC(=O)[C@H](Cc2ccc(O)cc2)NC(=O)CN)C(=O)N[C@@H](CO)C(=O)N[C@@H](CCCNC(=N)N)C(=O)N[C@@H](CO)C(=O)N[C@@H](Cc2ccc(O)cc2)C(=O)N2CCC[C@H]2C(=O)N2CCC[C@H]2C(=O)N[C@@H](C(C)C)C(=O)N1)C(=O)N1CCC[C@H]1C(=O)N[C@@H](CC(=O)O)C(=O)O [M2-6E] (H-GYCSRSYPPVCIPD-OH; disulfide 3-11; N-terminus and C-terminus assumed) here?
A: not active on MASP-1

Q: What about the Ki (MASP-2 CCP1-CCP2-SP) of the same compound?
A: 180 nM

Q: What about the “thrombin inhibition” value (Thrombin) of the same compound?
A: very poor thrombin inhibitor

Q: What about the Ki (Thrombin; read-out: KI Thrombin) of the same compound?
A: 550 µM

Q: And the “thrombin time, effect on coagulation” value [3]?
A: remained near the normal range

Q: And the “prothrombin time, effect on coagulation” value [4]?
A: remained near the normal range

Q: And the “activated thromboplastin time, effect on coagulation” value [5]?
A: remained near the normal range

Q: And the “inhibition of the lectin pathway (C5-9 complex)” value [6]?
A: efficient and specific inhibitors of the lectin pathway

Q: And the “inhibition of the classical pathway (C5-9 complex)” value [7]?
A: neither “S” peptide nor the “NS” peptide inhibited

Q: And the “inhibition of the alternative pathway (C5-9 complex)” value [8]?
A: neither “S” peptide nor the “NS” peptide inhibited

Q: What about the Ki (Trypsin) of the same compound?
A: 1000 nM

Q: And the “activity on trypsin, lower by” value (Trypsin; compared with wild-type SFTI)?
A: 4 orders of magnitude

Q: For CC[C@H](C)[C@H](NC(=O)[C@@H]1CSSC[C@H](NC(=O)[C@H](CCSC)NC(=O)CN)C(=O)N[C@@H](CO)C(=O)N[C@@H](CCCNC(=N)N)C(=O)N[C@@H](CO)C(=O)N[C@@H](Cc2ccc(O)cc2)C(=O)N2CCC[C@H]2C(=O)N2CCC[C@H]2C(=O)N[C@@H](C(C)C)C(=O)N1)C(=O)N1CCC[C@H]1C(=O)N[C@@H](CC(=O)O)C(=O)O [M2-6E-Y2M] (H-GMCSRSYPPVCIPD-OH; disulfide 3-11; N-terminus and C-terminus assumed), which Ki (Trypsin) is on record?
A: 4000 nM

Q: With CC[C@H](C)[C@@H]1NC(=O)[C@@H]2CCCN2C(=O)[C@@H]2CCCN2C(=O)[C@H]([C@@H](C)CC)NC(=O)[C@H](CO)NC(=O)[C@H](CCCCN)NC(=O)[C@H]([C@@H](C)O)NC(=O)[C@@H](NC(=O)[C@H](CCCNC(=N)N)NC(=O)CN)CSSC[C@@H](C(=O)N[C@@H](Cc2ccccc2)C(=O)N2CCC[C@H]2C(=O)N[C@@H](CC(=O)O)C(=O)O)NC1=O [wild-type SFTI, reference compound] as the compound, how does the Ki (Thrombin) read?
A: 140 µM

Q: CC[C@H](C)[C@H](NC(=O)[C@@H]1CSSC[C@H](NC(=O)[C@H](Cc2c[nH]c3ccccc23)NC(=O)CN)C(=O)N[C@@H](CO)C(=O)N[C@@H](CCCNC(=N)N)C(=O)N[C@@H](CO)C(=O)N[C@@H](Cc2ccc(O)cc2)C(=O)N2CCC[C@H]2C(=O)N2CCC[C@H]2C(=O)N[C@@H](C(C)C)C(=O)N1)C(=O)N1CCC[C@H]1C(=O)N[C@@H](CC(=O)O)C(=O)O [M2-6E-Y2W] (H-GWCSRSYPPVCIPD-OH; disulfide 3-11; N-terminus and C-terminus assumed) was tested. Which Ki (Trypsin) did it give?
A: 1700 nM
